Data reported in patent US9616065B2, “Compositions useful in treating brain-related diseases or disorders and methods using same” (priority 2013, dated 2017).
“Also recorded” adds a separate entry of the source. Like-named read-outs stand apart in the source and are kept apart here.

How the values were obtained:
[1] = target: SmDAT (Schistosoma mansoni, UniProt E9LD23); assay: Transport inhibition constants, SmDAT; type: cell-based
[2] = target: T1, NET (Homo sapiens, UniProt P23975); assay: NET interaction with amphetamine in presence of modulator; type: cell-based
T1 construct: expressed in transfected cells
T1 sequence (P23975 whole entry): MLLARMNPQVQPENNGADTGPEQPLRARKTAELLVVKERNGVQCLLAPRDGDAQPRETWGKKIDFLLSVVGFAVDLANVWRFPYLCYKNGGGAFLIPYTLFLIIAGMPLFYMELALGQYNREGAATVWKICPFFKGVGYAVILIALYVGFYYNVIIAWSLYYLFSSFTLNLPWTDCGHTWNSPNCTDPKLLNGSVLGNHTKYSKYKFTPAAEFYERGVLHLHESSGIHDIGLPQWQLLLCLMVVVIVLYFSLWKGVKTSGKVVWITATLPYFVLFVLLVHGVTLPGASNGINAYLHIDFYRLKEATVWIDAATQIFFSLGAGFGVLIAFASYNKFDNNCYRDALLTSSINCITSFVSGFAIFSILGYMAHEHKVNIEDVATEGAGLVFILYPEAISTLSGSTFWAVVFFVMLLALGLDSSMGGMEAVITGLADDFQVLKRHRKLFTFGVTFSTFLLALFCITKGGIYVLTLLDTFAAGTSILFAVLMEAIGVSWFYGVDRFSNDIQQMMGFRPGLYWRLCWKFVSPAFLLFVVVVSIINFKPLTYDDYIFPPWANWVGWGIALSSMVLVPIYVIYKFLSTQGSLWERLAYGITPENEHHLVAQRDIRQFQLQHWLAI
Experimental: (§1) Mutants are functionally tested in transfected COS-7 cells. Based on the success of the approach that identified the A1 site, the critical residues identified elsewhere herein are tested for changes in uptake kinetics and amphetamine-mediated efflux. Following this initial screen, residues displaying altered activity are tested further in uptake inhibition and ligand displacement assays. For uptake, cells are washed with PBSCM (phosphate-buffered saline with 1 mM MgCl, 0.1 mM CaCl2, 100 μM ascorbic acid, 10 μM clorgyline, 100 μM pargyline, and 10 μM RO 41-0960). To initiate uptake, cells are incubated for 10 min at 25° C. with various concentrations of radiolabeled monoamine. Following uptake, cells are washed and radioactivity is counted using liquid scintillation counting. […] Apparent Km and Vmax are determined using nonlinear regression analysis. The interaction of WT and mutant MAT with psychostimulants and transporter inhibitors is assessed using uptake inhibition assays. Cells are transfected as described elsewhere herein, but before uptake is initiated the cells are preincubated with various concentrations of ligand for 10 min. Uptake is initiated and performed as described elsewhere herein.

[3] = target: T2, SERT (Homo sapiens, UniProt P31645); assay: [3H]-serotonin uptake after preincubation with modulator; type: cell-based
T2 construct: The templates were full-length and nontagged human SERT in pcdna3.1; expressed in transfected cells; host or cells: COS-7, HEK293 or MDCK (uptake); COS-7 (efflux)
Experimental: (§2) COS-7, HEK293, and MDCK cells were maintained in Dulbecco modified Eagle medium (3.5 g/l glucose) supplemented with FBS (10% each) at 37° C. with 5% CO2. Uptake experiments were performed 2 days after transfecting DNAs (hSERT, human dopamine transporter [hDAT], chimeras or mutants, or empty vector for background) with TransIT-LT1 (Minis Bio LLC, Madison, Wis., USA) transfection reagent and plating the cells in 24- or 96-well plates.
(§3) The uptake was allowed to continue for 10 min at room temperature and was terminated by washing with PBS-CM. […] Vmax and KM are given as mean±S.D. of three independent experiments. […] EC50 values are given as mean±S.E.M. of at least five independent experiments. Statistical significance between vehicle and drug treatments was assessed using Student t-test or one-way analysis of variance (ANOVA) Dunnett's multiple-comparison test (p<0.05).

[4] = target: T3, WT hDAT (Homo sapiens, UniProt Q01959); assay: Amphetamine-induced efflux with modulator, hDAT WT; type: cell-based; conditions: 5 nM amphetamine
T3 construct: expressed in transfected cells; host or cells: COS-7, HEK293 or MDCK
T3 sequence (Q01959 whole entry): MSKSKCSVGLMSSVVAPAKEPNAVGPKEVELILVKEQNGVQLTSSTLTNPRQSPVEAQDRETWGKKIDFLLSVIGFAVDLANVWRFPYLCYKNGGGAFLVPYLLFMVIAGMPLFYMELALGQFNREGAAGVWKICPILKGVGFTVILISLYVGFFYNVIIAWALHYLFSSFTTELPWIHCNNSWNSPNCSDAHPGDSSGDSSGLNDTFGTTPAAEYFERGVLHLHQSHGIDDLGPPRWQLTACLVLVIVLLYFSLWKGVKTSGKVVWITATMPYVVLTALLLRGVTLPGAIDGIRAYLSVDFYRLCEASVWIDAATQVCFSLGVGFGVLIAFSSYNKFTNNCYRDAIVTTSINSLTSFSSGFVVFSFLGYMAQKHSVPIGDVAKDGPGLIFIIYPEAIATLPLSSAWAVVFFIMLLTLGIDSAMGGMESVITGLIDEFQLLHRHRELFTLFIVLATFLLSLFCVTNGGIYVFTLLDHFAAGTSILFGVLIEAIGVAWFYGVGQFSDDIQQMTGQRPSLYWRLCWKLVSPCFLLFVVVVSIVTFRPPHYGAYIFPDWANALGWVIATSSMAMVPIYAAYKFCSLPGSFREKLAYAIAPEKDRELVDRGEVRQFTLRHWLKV
Experimental: (§4) Efflux is terminated by collecting the supernatant. Both cells and supernatant are counted by liquid scintillation counting. Efflux is calculated as ratio of supernatant over supernatant and cells.

[5] = system: hDAT L89C mutant (L89A); assay: Dopamine uptake inhibition assay, hDAT L89 mutant; type: cell-based, human
Experimental: as §1

[6] = target: T4, hDAT N93A mutant (Homo sapiens, UniProt Q01959, N93A); assay: Amphetamine-induced efflux with modulator, hDAT N93A mutant; type: cell-based; conditions: low concentrations of amphetamine
T4 construct: expressed in transfected cells; host or cells: COS-7
T4 sequence (Q01959 1-620 N93A): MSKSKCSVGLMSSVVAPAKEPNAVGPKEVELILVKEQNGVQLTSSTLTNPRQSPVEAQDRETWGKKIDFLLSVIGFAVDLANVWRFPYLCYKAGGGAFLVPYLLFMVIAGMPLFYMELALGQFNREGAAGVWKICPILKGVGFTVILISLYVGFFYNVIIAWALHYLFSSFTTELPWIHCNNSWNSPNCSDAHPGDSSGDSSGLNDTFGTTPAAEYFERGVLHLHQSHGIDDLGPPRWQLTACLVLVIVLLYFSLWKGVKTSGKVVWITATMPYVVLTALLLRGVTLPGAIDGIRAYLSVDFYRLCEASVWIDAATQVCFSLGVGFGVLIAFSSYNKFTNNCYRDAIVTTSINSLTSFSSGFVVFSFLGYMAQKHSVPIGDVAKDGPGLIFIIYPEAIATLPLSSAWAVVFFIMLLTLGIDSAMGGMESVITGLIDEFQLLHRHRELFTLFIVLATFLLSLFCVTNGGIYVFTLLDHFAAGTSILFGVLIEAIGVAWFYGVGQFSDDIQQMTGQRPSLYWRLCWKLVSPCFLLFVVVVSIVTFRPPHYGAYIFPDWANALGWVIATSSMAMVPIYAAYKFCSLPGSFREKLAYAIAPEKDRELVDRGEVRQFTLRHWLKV
Experimental: as §4

[7] = target: T5, hDAT (Homo sapiens, UniProt Q01959); assay: [3H]-dopamine uptake after preincubation with modulator; type: cell-based
T5 construct: expressed in transfected cells; host or cells: COS-7, HEK293 or MDCK
T5 sequence (Q01959 whole entry): as the sequence (Q01959 whole entry) above
Experimental: as §2, §3

[8] = system: mSERT mutant YETQ-L563V; assay: Serotonin uptake kinetics, mSERT mutant YETQ-L563V; type: cell-based, mouse; conditions: read-out: apparent affinity (Km)
[9] = target: SmSERT (Schistosoma mansoni, UniProt Q3I1M7); assay: Transport inhibition constants, SmSERT; type: cell-based
Sequence of SmSERT (Q3I1M7 entry or part of it): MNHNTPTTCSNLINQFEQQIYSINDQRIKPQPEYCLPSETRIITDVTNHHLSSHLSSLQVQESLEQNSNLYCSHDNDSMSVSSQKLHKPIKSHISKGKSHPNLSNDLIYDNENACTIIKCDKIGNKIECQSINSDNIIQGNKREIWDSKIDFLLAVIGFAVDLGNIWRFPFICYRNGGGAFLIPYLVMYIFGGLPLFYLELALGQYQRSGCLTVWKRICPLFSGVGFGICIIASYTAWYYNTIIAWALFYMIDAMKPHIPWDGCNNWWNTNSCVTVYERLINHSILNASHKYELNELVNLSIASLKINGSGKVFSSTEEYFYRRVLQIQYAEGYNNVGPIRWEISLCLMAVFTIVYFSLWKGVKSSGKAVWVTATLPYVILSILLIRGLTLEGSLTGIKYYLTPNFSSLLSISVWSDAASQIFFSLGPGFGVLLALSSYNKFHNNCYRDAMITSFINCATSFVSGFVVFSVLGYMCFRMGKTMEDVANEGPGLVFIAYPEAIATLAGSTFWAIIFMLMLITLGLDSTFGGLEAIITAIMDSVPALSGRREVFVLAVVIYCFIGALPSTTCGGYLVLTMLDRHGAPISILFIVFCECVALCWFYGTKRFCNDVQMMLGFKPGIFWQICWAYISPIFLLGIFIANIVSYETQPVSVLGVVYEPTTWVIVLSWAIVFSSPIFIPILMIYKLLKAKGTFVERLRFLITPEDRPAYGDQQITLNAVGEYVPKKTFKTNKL

[10] = target: wild-type human SERT (Homo sapiens, UniProt P31645); assay: Amphetamine-elicited efflux, wild-type human SERT; type: cell-based; parameters: The templates were full-length and nontagged human SERT in pcdna3.1; expressed in transfected cells; host or cells: COS-7, HEK293 or MDCK (uptake); COS-7 (efflux); conditions: 1 μM amphetamine
Experimental: (§5) COS-7 cells were maintained under the same conditions as above. Efflux experiments were performed 2 days after cell transfection with hSERT or empty vector and plating of the cells in 24-well plates. Cells were washed with room temperature PBS-CM and then loaded with 50 nM [^3H]-serotonin for 1 h. After preloading, cells were washed twice with buffer and then incubated for 10 min with or without substrates at room temperature. After incubation, the supernatant was collected, liquid scintillation fluid added, and the samples counted (Beckman LS-6500 Multi-purpose Scintillation Counter; Beckman Coulter, Brea, Calif.). The cells were solubilized in a solution of 0.1% sodium dodecyl sulfate and 0.1 M NaOH; liquid scintillation fluid was added and tubes were counted as above. All assays were done in quadruplicate.
(§6) The percentage of [^3H]-serotonin efflux among different treatments was calculated by adding counts of supernatant plus cell lysis, with the supernatant counts then divided by the total and multiplied by 100 to yield the percentage of efflux.
(§7) To investigate the role of central domains formed by TMD1 and 6 within SERT, chimeras were produced between the human and parasite SERT and TMD1 and 2 or 6 and 7, respectively, were replaced in the human SERT with their parasite counterparts. […]

[11] = target: T6, human SERT amino acid 112 mutant (N112C) (Homo sapiens, UniProt P31645, N112C); assay: Amphetamine-elicited efflux, human SERT amino acid 112 mutant; type: cell-based; conditions: 1 μM amphetamine
T6 construct: The templates were full-length and nontagged human SERT in pcdna3.1; expressed in transfected cells; host or cells: COS-7
Experimental: as §5, §6, §7

[12] = target: T7, human SERT amino acid 328 mutant (D328C) (Homo sapiens, UniProt P31645, D328C); assay: Amphetamine-elicited efflux, human SERT amino acid 328 mutant; type: cell-based; conditions: 1 μM amphetamine
T7 construct: The templates were full-length and nontagged human SERT in pcdna3.1; expressed in transfected cells; host or cells: COS-7
Experimental: as §5, §6, §7

[13] = system: mSERT mutant YETQ-L563V; assay: Substrate-elicited efflux, mSERT mutant YETQ-L563V; type: cell-based, mouse; conditions: up to highest testable concentration
Experimental: as §4

[14] = target: T1, NET; assay: hNET uptake assay with transporter modulators; type: cell-based
[15] = substrate: NCCc1c[nH]c2ccc(O)cc12; assay: cells, lysate or membranes; conditions: other: WT mSERT
[16] = read-out: Ki transport inhibition SmDAT

Sequence of SmDAT (E9LD23 1-727): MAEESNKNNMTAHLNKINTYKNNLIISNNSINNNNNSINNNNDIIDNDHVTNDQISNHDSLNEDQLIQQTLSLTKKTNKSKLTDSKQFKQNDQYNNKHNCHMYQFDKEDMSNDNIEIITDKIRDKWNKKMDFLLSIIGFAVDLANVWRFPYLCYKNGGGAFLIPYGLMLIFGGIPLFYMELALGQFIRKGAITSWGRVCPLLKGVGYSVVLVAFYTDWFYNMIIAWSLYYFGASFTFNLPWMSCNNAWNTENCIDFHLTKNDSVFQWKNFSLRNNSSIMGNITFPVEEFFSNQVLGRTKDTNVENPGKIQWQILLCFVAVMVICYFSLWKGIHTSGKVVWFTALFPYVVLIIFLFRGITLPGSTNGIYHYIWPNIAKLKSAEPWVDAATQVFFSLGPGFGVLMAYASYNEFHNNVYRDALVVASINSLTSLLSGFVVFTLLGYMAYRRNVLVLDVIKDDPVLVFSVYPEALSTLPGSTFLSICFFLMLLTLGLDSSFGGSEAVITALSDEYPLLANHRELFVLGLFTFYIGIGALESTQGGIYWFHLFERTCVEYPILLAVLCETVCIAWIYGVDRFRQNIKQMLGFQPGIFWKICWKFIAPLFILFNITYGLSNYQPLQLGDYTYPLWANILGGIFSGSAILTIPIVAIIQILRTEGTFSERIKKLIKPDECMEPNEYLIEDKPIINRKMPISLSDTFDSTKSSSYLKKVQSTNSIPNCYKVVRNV

`CC(NC(C)(C)C)C(=O)c1cccc(Cl)c1` (centres unmarked) [Bupropion] showed a Ki [1, 16] of 242 ± 36 µM.

With `COc1cc(C(C(=O)NCCC(C)C)N(CCCO)C(=O)c2snc(C(N)=O)c2N)ccc1O` (centres unmarked) [ATM2, 4-amino-N^5-{1-(4-hydroxy-3-methoxyphenyl)-2-[(3-methylbutyl)amino]-2-oxoethyl}-N^5-(3-hydroxypropyl)-1,2-thiazole-3,5-dicarboxamide] the “effect on affinity of amphetamine for NET” value [2] was “affinity for amphetamine was enhanced”, the “effect on SERT uptake activity / specificity” value [3] was “higher activity towards SERT” and the “shape of concentration response on transporter uptake” value [3] was “biphasic mode of action, enhancing transporter activity at low concentrations and inhibiting transporter function at higher concentrations”.

`CCc1ccc2[nH]c3nc(SCCNS(=O)(=O)c4ccc(NC(C)=O)cc4)nnc3c2c1` [ATM5] was tested, and the “effect on amphetamine-mediated efflux” value [4] was “potentiated amphetamine-mediated efflux; also recorded: potentiated amphetamine mediated efflux”, the “affinity of mutant for ATM5 versus WT” value [5] was “increased affinity for ATM5” and the “effect on amphetamine-elicited efflux” value [6] was “blocking amphetamine-elicited efflux; also recorded: blocked”. For the same molecule, the “effect on DAT uptake activity / specificity” value [7] was “higher activity towards hDAT than hSERT”, the “shape of concentration response on hDAT uptake” value [7] was “biphasic activity enhancing hDAT activity at low concentrations and inhibiting hDAT function at higher concentrations” and the “effect on DAT uptake activity / specificity” value ([7]; listed as KM-822) was “specific for DAT”.

`NCCc1c[nH]c2ccc(O)cc12` [serotonin] was tested, and the Km [8] was 4.7 ± 1.3 µM.

In the case of `COC(=O)[C@H]1[C@@H](OC(=O)c2ccccc2)C[C@@H]2CC[C@H]1N2C` [Cocaine], the Ki [9] is reported as 35.4 ± 7.6 µM and the Ki [1, 16] is reported as 29.4 ± 3.6 µM.

For `CN(C)CCCN1c2ccccc2CCc2ccccc21` [Imipramine], the Ki [9] was 0.3 ± 0.1 µM.

In the case of `CC(N)Cc1ccccc1` (centres unmarked) [Amphetamine], the amphetamine-elicited efflux [10] is reported as “substantial efflux”, the Ki [9] is reported as 393 ± 26 µM and the amphetamine-elicited efflux [11] is reported as “no significant amphetamine-elicited efflux”. The amphetamine-elicited efflux [12] was “no significant amphetamine-elicited efflux”, the “reversal of transport (efflux)” value [13] was “did not elicit any significant reversal of transport” and the Ki [1] was 10 ± 0.5 µM.

For `COc1cccc(NC(=O)Cn2c(SCC(=O)Nc3ccc(F)cc3)nnc2-c2ccncc2)c1` [KM-409, N-(4-fluorophenyl)-2-((4-(2-((3-methoxyphenyl)amino)-2-oxoethyl)-5-(pyridin-4-yl)-4H-1,2,4-triazol-3-yl)thio)acetamide], the “activity towards NET” value [14] was “displayed activity towards NET”.

Molecule `CN(C)CCCC1(c2ccc(F)cc2)OCc2cc(C#N)ccc21` (centres unmarked) [Citalopram] has a Ki [1, 16] of 50.5 ± 4.7 µM.

B1: WT mSERT (Mus musculus) (protein)
chain: METTPLNSQKVLSECKDKEDCQENGVLQKGVPTPADKAGPGQISNGYSAVPSTSAGDEAPHSTPAATTTLVAEIHQGERETWGKKMDFLLSVIGYAVDLGNIWRFPYICYQNGGGAFLLPYTIMAIFGGIPLFYMELALGQYHRNGCISIWKKICPIFKGIGYAICIIAFYIASYYNTIIAWALYYLISSFTDQLPWTSCKNSWNTGNCTNYFAQDNITWTLHSTSPAEEFYLRHVLQIHQSKGLQDLGTISWQLALCIMLIFTIIYFSIWKGVKTSGKVVWVTATFPYIVLSVLLVRGATLPGAWRGVVFYLKPNWQKLLETGVWVDAAAQIFFSLGPGFGVLLAFASYNKFNNNCYQDALVTSVVNCMTSFVSGFVIFTVLGYMAEMRNEDVSEVAKDAGPSLLFITYAEAIANMPASTFFAIIFFLMLITLGLDSTFAGLEGVITAVLDEFPHIWAKRREWFVLIVVITCILGSLLTLTSGGAYVVTLLEEYATGPAVLTVALIEAVVVSWFYGITQFCSDVKEMLGFSPGWFWRICWVAISPLFLLFIICSFLMSPPQLRLFQYNYPHWSIILGYCIGTSSVICIPIYIIYRLISTPGTLKERIIKSITPETPTEIPCGDIRMNAV
B1 was tested, and the Km [15] was 3.4 ± 0.7 µM.
